What was measured:
Type in all cases: cell-based, murine
ABE-8.1/2 cells = assay: Photoinactivation of cell line, colony forming assay; settings: for fluence for photoinactivation to below the detection levels: 15 nM
Experimental: Cell lines and culture conditions. WEHI-3 (murine myelocytic leukemia), L1210 (murine lymphocytic leukemia) and P815 (murine mastocytoma) cells were grown in RPMI 1640 (GibcoBRL, Grand Island, N.Y.) supplemented with 10% FBS. BC3A (murine leukemia) cells were grown in RPMI 1640 supplemented with 10 μM β-mercaptoethanol and 10% FBS; ABE-8.1/2 (murine pre-B lymphoma) cells were grown in DMEM (GibcoBRL)--10 μM β-mercaptoethanol--10% FBS. All cell lines were obtained from the American Type Culture Collection (Rockville, Md.) and were cultured at 37° C. in a humidified 5% CO2 -incubator. Prior to incubation with Pc 4, the cell lines were centrifuged and resuspended in phosphate buffered saline (PBS)--10% FBS, pH 7.4.
(§1) Photosensitization. Aliquots of a 1.87 mM Pc 4 (kindly provided by Dr. M. E. Kenney) stock solution in dimethyl sulfoxide were kept at -80° C. in autoclaved brown glass vials. Immediately prior to the photosensitization, Pc4 was thawed and diluted in dimethyl formamide to yield a 10 μM working solution. […] Pc 4 was used at 15 nM throughout the experiments.
BM and cell line samples, were incubated with 15 nM Pc 4 for two hours at 37° C. at cell concentrations of 1.5×10^7 cells/mL. Aliquots of 1.5 mL were transferred to 24-well plates; separate plates were used for each sample.
In a second set of experiments, the cells were incubated with 15 nM Pc 4 at cell concentrations of 1.5×10^6 cells/mL. Prior to photoirradiation, the samples were centrifuged and the supernatants were aspirated and set aside. The cell concentrations were adjusted to 1.5×10^7 cells/mL by adding back an appropriate volume of the Pc 4 containing aspirates.
Photoinactivation. The light source used was a filtered xenon short arc lamp (Versa-Light, Model UV-R6G, Medic Lightech, Ltd., Haifa, Israel). It was used to deliver red light (λ 600-700 nm) to the sensitized cells. After a 20 minute warm up period of the instrument, the distance from the light source to the bottom of the 24-well plate was adjusted to obtain a fluence rate of 26.6 mW/cm^2, as measured with a radiometer (Model IL 1350, International Light, Newburyport, Mass.). Samples were placed under the light source and were stirred during the irradiations. Before and after the irradiations, samples were kept in the dark.
Cell line samples were plated (in triplicate) in a semi-solid medium which consisted of DMEM--20% vol/vol serum (2/3 horse serum, 1/3 FBS)--3 mM glutamine--60 μM β-mercaptoethanol--0.3% wt/vol agar. The samples were incubated at 37° C. in a humidified 5% CO2 -incubator, and colonies consisting of more than 50 cells were counted after nine days.
Statistics. All assays were performed in triplicate unless mentioned otherwise. Data are expressed as mean values±standard error of the mean (SEM). Survival data are presented as surviving fractions relative to the surviving fractions of the untreated controls. The significance of the differences between experimental values was assessed by means of the Student's t-test.

[1] = system: pluripotent stem cells (c-kit^+,Sca-1^+); assay: Uptake of Pc 4, flow cytometry; settings: for Pc 4 content / Pc 4 content per cell volume: 15 nM
Experimental: (§2) In mixing experiments, aliquots of Ly-5.2 BM and cell lines samples were mixed at different ratios. The combined cell concentration of each sample was 1.5×10^7 cells/mL. […] The cell lines were stained with anti-Ly-5.1^FITC. This treatment allowed clear resolution of the relatively small ABE-8.1/2 and BC3A cells from the bone marrow granulocytes. Immediately prior to the analyses, propidium iodide (PI, 0.5 μg/mL) was added to the samples to allow exclusion of dead cells (PI^+) from the analyses. The samples were analyzed in a FACStar^PLUS (BD) that was equipped with an argon ion laser tuned to 488 nm (200 mW) and a dye laser tuned to 610 nm (300 mW). FITC, PE, PI and Pc 4 fluorescence emissions were collected through 530/30, 575/42, 660/10, 670/10 nm band pass filters, respectively.
(§3) Cell size. Microscopic measurements of at least 20 cells were performed using a calibrated micrometer. To determine the cell size of the BM progenitor subsets, the c-kit^+,Sca-1^- and c-kit^+,Sca-1^+ fractions were sorted. The sorted cells were centrifuged and the pellets were resuspended in a 20 μl of HBBS. Samples were deposited onto microscope slides and covered with a cover slip. Cell diameters of 7.7±0.2 (c-kit^+,Sca-1^+), 8.4±0.3 (c-kit^+,Sca-1^-), 10.9±0.2 (BC3A), 11.1±0.2 (ABE-8.1/2), 13.0±0.3 (L1210), 14.2±0.3 (P815), 15.0±0.4 μm (WEHI-3) were obtained.

[2] = system: progenitor cells (c-kit^+,Sca-1^-); assay: Uptake of Pc 4, flow cytometry
Experimental: as §2, §3

[3] = system: cell lines and bone marrow samples; assay: Uptake of Pc 4
Experimental: as §1

[4] = 1.5×10^6 cells/ml during incubation
[5] = 1.5×10^7 cells/ml during incubation
[6] = 15 nM, 1.5×10^6 cells/ml during incubation
[7] = 15 nM, 1.5×10^7 cells/ml during incubation

CN(C)CCC[Si](C)(C)O[Si]1(O)n2c3c4ccccc4c2N=C2N=C(N=c4c5ccccc5c(n41)=NC1=NC(=N3)c3ccccc31)c1ccccc12 (centres unmarked) [Pc 4, hydroxysiloxy-dimethylpropyl-N-dimethyl silicon phthalocyanine]
fluence for photoinactivation to below the detection levels (ABE-8.1/2 cells; 1.5×10^6 cells/mL): 3 J/cm^2 | fluence for photoinactivation to below the detection levels (ABE-8.1/2 cells; 1.5×10^7 cells/mL): 12 J/cm^2 | selectivity of photoinactivation towards the cell line (ABE-8.1/2 cells; 1.5×10^6 cells/mL): approximately 5 log10 | selective photoinactivation (ABE-8.1/2 cells; 1.5×10^7 cells/mL, 18 J/cm^2): > 6 log10 | Pc 4 content [1, 4]: 109 ± 6.5 Mean fluorescence/cell | Pc 4 content per cell volume [1, 4]: 0.50 Mean fluorescence/μm^3 | Pc 4 content [1, 5]: 54 ± 6.9 Mean fluorescence/cell | Pc 4 content per cell volume [1, 5]: 0.23 Mean fluorescence/μm^3 | difference in Pc 4 content, pluripotent stem cells vs committed progenitors ([1]; 1.5×10^7 cells/mL (p=0.26)): not significant | Pc 4 content [2, 6]: 136 ± 7.8 Mean fluorescence/cell | Pc 4 content per cell volume [2, 6]: 0.44 Mean fluorescence/μm^3 | Pc 4 content [2, 7]: 68 ± 8.2 Mean fluorescence/cell | Pc 4 content per cell volume [2, 7]: 0.22 Mean fluorescence/μm^3 | cell concentration at which uptake reached a plateau ([2]; 15 nM, BM progenitor cells): 8.0×10^5 cells/mL | difference in Pc 4 content, committed progenitors vs ABE-8.1/2 ([2]; 1.5×10^7 cells/mL (p=0.07)): not quite significant | difference in Pc 4 content, committed progenitors vs BC3A ([2]; 1.5×10^7 cells/mL (p=0.29)): not significant | reduction of Pc 4 uptake ([2]; BM progenitors, from 8.0×10^5 to 1.5×10^7 cells/mL): 1.8 fold | dependence of Pc 4 uptake on cell concentration ([3]; all cell types, 15 nM): inversely correlated with the cell concentration | cellular Pc 4 concentration in BM fractions relative to cell lines ([3]; committed progenitors and pluripotent stem cells, corrected for cell volume): almost twice | time to complete uptake ([3]; murine BM samples): complete after two hours

— patent publication US6159733A, “Method for photoinactivating malignant cells” (priority 1996, dated 2000)
